Assay results as given in article PMC6792352, “Limited Chemical Structural Diversity Found to Modulate Thyroid Hormone Receptor in the Tox21 Chemical Library” (Environmental Health Perspectives, 2019).
Structures can show the parent of a compound that is named as a salt.

experiment: in vitro; conditions: rat, gh3-tre-luc cells, AC50 (uM) modified / 1000

Structure (SMILES)	CC50 at 24 h [µM]
CC(C)CN(C[C@@H](OP(=O)(O)O)[C@H](Cc1ccccc1)NC(=O)O[C@H]1CCOC1)S(=O)(=O)c1ccc(N)cc1 [Fosamprenavir calcium]	> 50
O=C(O)c1cccc(Oc2ccccc2)c1 [3-Phenoxybenzoic acid]	> 90
N=C(N)NCC1COC2(CCCCC2)O1 (stereo not drawn) [Guanadrel sulfate]	> 20
Brc1c2ccccc2c(Br)c2ccccc12 [9,10-Dibromoanthracene]	> 5
CCc1ccc(C=O)cc1 [4-Ethylbenzaldehyde]	> 90
ON=C1CCCC1 [Cyclopentanone oxime]	> 90
O=C1CCCC1 [Cyclopentanone]	> 90
CCOc1nc2cccc(C(=O)OC(C)OC(=O)OC3CCCCC3)c2n1Cc1ccc(-c2ccccc2-c2nnn[nH]2)cc1 (stereo not drawn) [Candesartan cilexetil]	31.1
CC(C(=O)O)c1ccc2c(c1)[nH]c1ccc(Cl)cc12 (stereo not drawn) [Carprofen]	> 50
CO[C@@H]1[C@@H](OC(N)=O)[C@@H](O)[C@H](Oc2ccc3c(O)c(NC(=O)c4ccc(O)c(CC=C(C)C)c4)c(=O)oc3c2C)OC1(C)C [Novobiocin sodium]	> 20
N[C@@H](Cc1ccc(O)c(O)c1)C(=O)O [L-Dopa]	> 50
Cc1ccc(S)cc1 [4-Thiocresol]	> 90
CC(C)CC(C)(C)C [2,2,4-Trimethylpentane]	> 100
c1ccc2ncccc2c1 [Quinoline]	> 90
FC(F)C(F)(F)OCC(Cn1cncn1)c1ccc(Cl)cc1Cl (stereo not drawn) [Tetraconazole]	> 90
O=C(O)[C@@H](O)[C@H](O)[C@H](O)[C@@H](O)C(=O)O [Mucic acid]	> 50
CCCCOC(=O)C(C)CC (stereo not drawn) [Butyl 2-methylbutyrate]	> 90
CCC(CO)(CO)[N+](=O)[O-] [2-Ethyl-2-nitro-1,3-propanediol]	> 90
CO[C@H]1C[C@H](O[C@H]2[C@H](C)[C@@H](O[C@@H]3O[C@H](C)C[C@H](N(C)C)[C@H]3O)[C@@H](C)C[C@@]3(CO3)C(=O)[C@H](C)[C@@H](O)[C@@H](C)[C@@H](C)OC(=O)[C@@H]2C)O[C@@H](C)[C@@H]1O [Oleandomycin phosphate]	> 20
Cc1nc(NS(=O)(=O)c2ccc(N)cc2)nc(C)c1Br [Sulfabromomethazine]	> 50
COc1ccccc1OCCNCC(O)COc1cccc2[nH]c3ccccc3c12 (stereo not drawn) [Carvedilol tartrate]	24
CC(=O)/C(C)=C/C1C(C)=CCCC1(C)C (stereo not drawn) [alpha-Isomethylionone]	> 90
C[N+]1(CCC(C(N)=O)(c2ccccc2)c2ccccc2)CCCCC1 [Fenpiverinium bromide]	> 50
O=C(Nc1ccc(Cl)c(Cl)c1)C1CC1 [Cypromid]	> 50
O=C(OCCc1ccccc1)c1ccccc1 [2-Phenylethyl benzoate]	> 90
C[C@@H]1C[C@H]2[C@@H]3C[C@H](F)C4=CC(=O)C(Cl)=C[C@]4(C)[C@@]3(F)[C@@H](O)C[C@]2(C)[C@@]1(O)C(=O)CO [Halometasone hydrate]	> 50
C=N[C@@H](C(=O)N[C@@H]1C(=O)N2[C@@H]1SC(C)(C)[C@@H]2C(=O)O)c1ccccc1 [Metampicillin sodium]	> 50

Structure (SMILES)	CC50 at 24 h [µM]
O=NN1CCNCC1 [N-Nitrosopiperazine]	> 100
Nc1ccc(Br)cc1 [4-Bromoaniline]	> 90
O=C(O)/C=C\C(=O)O [Maleic acid]	> 90
CCOC(=O)c1c(C)n(C)c2ccc(O)cc12 [Mecarbinate]	> 50
COC(=O)c1ccc2cc(C(=O)OC)ccc2c1 [Dimethyl 2,6-naphthalenedicarboxylate]	> 20
O=C(Oc1ccccc1)Oc1ccccc1 [Diphenylcarbonate]	> 90
NC(=O)c1ccc[n+]([C@@H]2O[C@H](COP(=O)([O-])OP(=O)(O)OC[C@H]3O[C@@H](n4cnc5c(N)ncnc54)[C@H](O)[C@@H]3O)[C@@H](O)[C@H]2O)c1 [Nadide]	> 20
CO/N=C(\C(=O)N[C@@H]1C(=O)N2C(C(=O)[O-])=C(C[n+]3cccc4c3CCC4)CS[C@H]12)c1csc(N)n1 [Cefpirome sulfate]	> 50
CCC12COCN1COC2 [Oxazolidine-E]	> 90
CCOCC(O)COc1ccc(NC(=O)CC[S+](C)C)cc1 (stereo not drawn) [Suplatast tosylate]	> 50
Cc1ccnc(NS(=O)(=O)c2ccc(N)cc2)n1 [Sulfamerazine]	> 20
Cc1ncc(COP(=O)(O)O)c(C=O)c1O [Pyridoxal phosphate hydrate]	> 50
C=CCOc1c(Br)cc(Br)cc1Br [1,3,5-Tribromo-2-(prop-2-en-1-yloxy)benzene]	> 90
Cc1occc1SSc1ccoc1C [Bis(2-methyl-3-furyl)disulfide]	> 90
O[C@H]1[C@H](O)[C@@H](O)[C@H](O)[C@@H](O)[C@H]1O [myo-Inositol]	> 90
CNc1cnn(-c2cccc(C(F)(F)F)c2)c(=O)c1Cl [Norflurazon]	> 90
O=C(NCN1CCOCC1)c1cnccn1 [Morphazinamide]	> 50
Oc1ccc(Cl)cc1Cl [2,4-Dichlorophenol]	> 90
CCCCCCCC/C=C\CCCCCCCC(N)=O [(9Z)-Octadec-9-enamide]	> 90
CC(C)n1c(/C=C/[C@H](O)C[C@H](O)CC(=O)O)c(-c2ccc(F)cc2)c2ccccc21 (racemic) [Fluvastatin]	> 90
CCCC[N+]1(C)CCCCC1 [1-Butyl-1-methylpiperidinium tetrafluoroborate]	> 90
CCCCCCCCCCCC(=O)OC [Methyl dodecanoate]	> 90
Cc1cccc(C)c1OCC(C)N (stereo not drawn) [Mexiletene hydrochloride]	> 50
NCCCN1CCN(CCCN)CC1 [1,4-bis(3-Aminopropyl)piperazine]	> 90
CC1(O)CSC(C)(O)CS1 (stereo not drawn) [2,5-Dimethyl-1,4-dithiane-2,5-diol]	> 90
CCC(O)C(C)(C)C (stereo not drawn) [2,2-Dimethyl-3-pentanol]	> 90
CC(=O)Oc1ccc(C(=C2CCCCC2)c2ccc(OC(C)=O)cc2)cc1 [Cyclofenil]	> 50

same assay, conditions: rat, gh3-tre-luc cells, AC50 (uM) modified / 1000, Tox21_110001=Tox21_110485; viability, 1 nM T3 present, 24 h

Structure (SMILES)	CC50 at 24 h [µM]
CC(=O)O[C@H]1CC[C@@]2(C)C(=CC[C@@H]3[C@@H]2CC[C@]2(C)C(=O)CC[C@@H]32)C1 [Dehydroepiandrosterone acetate]	> 20

same assay, conditions: rat, gh3-tre-luc cells, AC50 (uM) modified / 1000, Tox21_110001=Tox21_111470; viability, 1 nM T3 present, 24 h

Structure (SMILES)	CC50 at 24 h [µM]
NC(=O)C[S+]([O-])C(c1ccccc1)c1ccccc1 (stereo not drawn) [Modafinil]	> 50

same assay, conditions: rat, gh3-tre-luc cells, AC50 (uM) modified / 1000, Tox21_110001=Tox21_112495; viability, 1 nM T3 present, 24 h

Structure (SMILES)	CC50 at 24 h [µM]
C[C@]12CC[C@H]3[C@@H](CC=C4C[C@@H](O)CC[C@@]43C)[C@@H]1CC[C@@H]2O [Androstenediol]	> 50

same assay, conditions: rat, gh3-tre-luc cells, AC50 (uM) modified / 1000, Tox21_110001=Tox21_113116; viability, 1 nM T3 present, 24 h

Structure (SMILES)	CC50 at 24 h [µM]
C[C@]12CC[C@H]3[C@@H](CCC4=CC(=O)CC[C@@]43C)[C@@H]1CC[C@@H]2OC(=O)CCc1ccccc1 [Testosterone 17-phenylpropionate]	> 90

same assay, conditions: rat, gh3-tre-luc cells, AC50 (uM) modified / 1000, Tox21_110001=Tox21_113359; viability, 1 nM T3 present, 24 h

Structure (SMILES)	CC50 at 24 h [µM]
CCOP(=S)(OCC)SCSc1ccc(Cl)cc1 [Carbophenothion]	> 50

same assay, conditions: rat, gh3-tre-luc cells, AC50 (uM) modified / 1000, Tox21_110001=Tox21_200963; viability, 1 nM T3 present, 24 h

Structure (SMILES)	CC50 at 24 h [µM]
CC(=O)O[C@H]1CC[C@@]2(C)C(=CC[C@@H]3[C@@H]2CC[C@]2(C)C(=O)CC[C@@H]32)C1 [Dehydroepiandrosterone acetate]	> 90

same assay, conditions: rat, gh3-tre-luc cells, AC50 (uM) modified / 1000, Tox21_110001=Tox21_200998; viability, 1 nM T3 present, 24 h

Structure (SMILES)	CC50 at 24 h [µM]
CC(O)CCl (stereo not drawn) [1-Chloro-2-propanol, technical grade (~75% 1-chloro-2-propanol; ~25% 2-chloro-1-propanol)]	> 90

same assay, conditions: rat, gh3-tre-luc cells, AC50 (uM) modified / 1000, Tox21_110001=Tox21_301426; viability, 1 nM T3 present, 24 h

Structure (SMILES)	CC50 at 24 h [µM]
CCOP(=S)(OCC)SCSc1ccc(Cl)cc1 [Carbophenothion]	> 90

same assay, conditions: rat, gh3-tre-luc cells, AC50 (uM) modified / 1000, Tox21_110001=Tox21_302216; viability, 1 nM T3 present, 24 h

Structure (SMILES)	CC50 at 24 h [µM]
CCOC(=O)COc1ccc(Cl)cc1Cl [2,4-D-ethyl ester]	> 90
